In PMC7413254 (Nature Communications, 2020):
Read-outs that look alike come from different tables or passages of the source.

Columns and labels:
[1] = tested on: non-expressing oocytes; assay: cells; type: cell-based, Xenopus laevis; conditions: Xenopus laevis, total [3H]CQ transport; for inhibition at 500 µM: [test solute] = 0.5 mM; for inhibition at 1000 µM: [test solute] = 1 mM; for inhibition at 2000 µM: [test solute] = 2 mM
Procedure, shortened: (§1)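 PfCRT-expressing and control oocytes: ND96 pH 5.5 → 1.5 h at 27.5 °C → ice-cold ND96 wash → 10% SDS lysis → scintillation count.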

[2] = tested on: PfCRT; assay: Influx of VF-6 via PfCRT into the oocyte, solutes tested as potential co-substrates; type: cell-based, Plasmodium falciparum; parameters: key: X: Compounds that have been tested as potential co-substrates but are not required for influx of VF-6 via PfCRT into the oocyte; conditions: X marks the solute
[3] = tested on: PfCRT; assay: Test of solutes as potential co-substrates for influx of VF-6 via PfCRT into the oocyte; type: cell-based, Plasmodium falciparum; parameters: key: X: Compounds that have been tested as potential co-substrates but are not required for influx of VF-6 via PfCRT into the oocyte; conditions: X = tested
[4] = target: T1, PfCRT^Ecu1110 (Plasmodium falciparum, UniProt Q9N623, A220S/I356L/K76T/N326D); assay: [3H]CQ uptake into Xenopus oocytes, cis-inhibition by unlabelled solute; type: cell-based
T1 sequence (Q9N623 whole entry A220S/I356L/K76T/N326D): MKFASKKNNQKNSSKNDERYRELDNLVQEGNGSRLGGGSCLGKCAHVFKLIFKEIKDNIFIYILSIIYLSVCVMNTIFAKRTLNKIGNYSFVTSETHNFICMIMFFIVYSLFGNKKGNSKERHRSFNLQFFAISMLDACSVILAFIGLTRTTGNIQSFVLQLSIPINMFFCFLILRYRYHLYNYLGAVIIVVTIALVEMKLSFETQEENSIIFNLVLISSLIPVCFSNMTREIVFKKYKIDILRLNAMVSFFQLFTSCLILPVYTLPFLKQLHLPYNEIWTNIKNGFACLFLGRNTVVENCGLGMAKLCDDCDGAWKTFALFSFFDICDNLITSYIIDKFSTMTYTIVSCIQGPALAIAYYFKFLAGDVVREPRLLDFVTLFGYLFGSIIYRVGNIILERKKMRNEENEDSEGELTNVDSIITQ
Procedure, shortened: as §1

[5] = target: T2, PfCRT^Dd2 (Plasmodium falciparum, UniProt Q9N623, A220S/I356T/K76T/M74I/N326S/N75E/Q271E/R371I); assay: as above; type: cell-based
T2 sequence (Q9N623 whole entry A220S/I356T/K76T/M74I/N326S/N75E/Q271E/R371I): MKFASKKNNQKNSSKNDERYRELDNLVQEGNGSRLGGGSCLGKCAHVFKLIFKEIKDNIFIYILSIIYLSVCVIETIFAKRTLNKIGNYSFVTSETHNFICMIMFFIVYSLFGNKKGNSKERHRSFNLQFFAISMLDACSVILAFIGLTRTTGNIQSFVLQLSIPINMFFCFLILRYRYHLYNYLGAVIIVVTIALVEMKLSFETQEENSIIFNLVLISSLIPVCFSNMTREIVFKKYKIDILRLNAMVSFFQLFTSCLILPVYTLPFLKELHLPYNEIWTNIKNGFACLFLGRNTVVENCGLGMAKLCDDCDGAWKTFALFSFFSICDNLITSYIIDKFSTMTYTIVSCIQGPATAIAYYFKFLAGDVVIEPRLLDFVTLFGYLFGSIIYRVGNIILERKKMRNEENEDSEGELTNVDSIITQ
Procedure, shortened: as §1

[6] = target: T1, PfCRT^Ecu1110; assay: cell-based; type: cell-based; conditions: […]
Procedure, shortened: (§2)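 Transport measured in Xenopus oocytes expressing the transporters, 1.5 h at 27.5 °C in ND96 pH 5.5 unless noted. For trans-stimulation, VF-6 injected in 25 nL ND96 at pH 5.0–7.0 or Na^+-free (choline) buffer; intracellular levels based on ~400 nL oocyte volume. Ten oocytes per treatment, ≥4 experiments.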

[7] = target: T3, PfNT1 (Plasmodium falciparum, UniProt Q8IDM6); assay: cell-based; type: cell-based; conditions: for activity at 5000 µM: total [3H]CQ transport
T3 construct: expressed in transfected cells; host or cells: Xenopus laevis oocytes (stage V-VI), cRNA-injected
T3 sequence (Q8IDM6 whole entry): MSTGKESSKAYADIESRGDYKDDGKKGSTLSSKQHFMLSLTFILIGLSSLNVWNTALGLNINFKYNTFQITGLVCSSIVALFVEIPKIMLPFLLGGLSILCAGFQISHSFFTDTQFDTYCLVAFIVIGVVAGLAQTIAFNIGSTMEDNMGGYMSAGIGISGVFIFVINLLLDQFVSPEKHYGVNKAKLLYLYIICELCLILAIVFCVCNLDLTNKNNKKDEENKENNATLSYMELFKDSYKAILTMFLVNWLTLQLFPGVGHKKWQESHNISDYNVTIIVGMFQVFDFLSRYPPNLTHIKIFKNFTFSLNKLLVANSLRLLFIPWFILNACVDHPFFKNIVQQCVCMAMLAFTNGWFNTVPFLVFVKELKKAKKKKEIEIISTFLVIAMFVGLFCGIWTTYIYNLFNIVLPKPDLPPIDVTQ
Procedure, shortened: as §2

[8] = target: T4, PfCRT^3D7 (Plasmodium falciparum, UniProt Q8IBZ9); assay: cell-based; type: cell-based
T4 sequence (Q8IBZ9 59-398): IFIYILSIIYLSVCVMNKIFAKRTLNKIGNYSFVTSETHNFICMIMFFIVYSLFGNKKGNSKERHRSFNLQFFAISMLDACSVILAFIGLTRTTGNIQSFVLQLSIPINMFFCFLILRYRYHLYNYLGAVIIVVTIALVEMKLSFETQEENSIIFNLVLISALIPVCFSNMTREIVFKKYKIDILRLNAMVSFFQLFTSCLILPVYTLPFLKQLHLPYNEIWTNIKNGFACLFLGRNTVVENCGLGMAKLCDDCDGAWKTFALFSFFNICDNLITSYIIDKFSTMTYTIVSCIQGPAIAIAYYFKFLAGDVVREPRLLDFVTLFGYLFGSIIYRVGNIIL
Procedure, shortened: as §2

[9] = target: T2, PfCRT^Dd2; assay: cell-based; type: cell-based; conditions: […]; for activity at 45000 µM: [test solute]i = 45 mM (30 mM for some solutes due to solubility)
Procedure, shortened: as §2

[10] = target: T4, PfCRT^3D7; assay: cell-based; type: cell-based; conditions: total [3H]CQ transport; for inhibition at 500 µM: [test solute] = 0.5 mM; for inhibition at 1000 µM: [test solute] = 1 mM; for inhibition at 2000 µM: [test solute] = 2 mM
Procedure, shortened: as §1

[11] = tested on: non-expressing oocytes; type: cell-based, Xenopus laevis; conditions: total [3H]CQ transport; for Uptake of [3H]CQ (% non-expressing oocyte control), trans-stimulation: non-expressing oocytes, normalised to the oocyte type control; for Uptake of [3H]CQ (% PfCRTDd2 control), trans-stimulation, non-expressing oocytes: mean ± SEM, SEM
Procedure, shortened: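 Oocytes (ten per treatment, ≥4 independent frogs/days) were preloaded by injecting VF-6 in 25 nL ND96 at pH 5.0, 5.5, 6.0 or 7.0, or Na^+-free choline buffer, then uptake run 1.5 h, 27.5 °C, ND96 pH 5.5 by default. Internal concentrations assumed ~400 nL oocyte volume.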

[12] = Oocyte, mean ± SEM, SEM, read-out: Uptake of [3H]CQ (% PfCRTDd2 control), cis-inhibition, non-expressing oocytes
[13] = non-expressing oocytes, normalised to the oocyte type control, read-out: Uptake of [3H]CQ (% non-expressing oocyte control), cis-inhibition
[14] = read-out: PfCRT-mediated [3H]CQ transport, cis-inhibition (% PfCRTEcu1110 control)
[15] = read-out: Uptake of [3H]CQ (% PfCRTDd2 control), cis-inhibition, PfCRTEcu1110, SEM
[16] = read-out: Uptake of [3H]CQ (% PfCRTEcu1110 control), cis-inhibition
[17] = read-out: [3H]CQ transport (% PfCRTEcu1110 control), cis-inhibition, PfCRTEcu1110, SEM
[18] = read-out: PfCRT-mediated [3H]CQ transport, cis-inhibition (% PfCRTDd2 control)
[19] = read-out: Uptake of [3H]CQ (% PfCRTDd2 control), cis-inhibition, PfCRTDd2, SEM
[20] = PfCRT3D7 oocytes, normalised to the oocyte type control, read-out: Uptake of [3H]CQ (% PfCRT3D7 control), cis-inhibition
[21] = mean ± SEM, SEM, read-out: Uptake of [3H]CQ (% PfCRTDd2 control), cis-inhibition, PfCRT3D7

C[C@H](N)C(=O)O [L-alanine]
inhibition at 500 µM [1, 12]: 3.5 ± 0.08%
inhibition at 1000 µM [1, 12]: 3.7 ± 0.08%
inhibition at 2000 µM [1, 12]: 2.2 ± 0.06%
inhibition at 500 µM [1, 13]: 99 ± 5.3%
inhibition at 1000 µM [1, 13]: 100 ± 3.5%
inhibition at 2000 µM [1, 13]: 99 ± 1.4%
Compounds that have been tested as potential co-substrates but are not required for influx of VF-6 via PfCRT into the oocyte [2]: X
Tested as potential co-substrate but not required for influx of VF-6 via PfCRT into the oocyte [3]: X
inhibition at 500 µM [4, 14]: 93 ± 1.3%
inhibition at 1000 µM [4, 14]: 95 ± 1.7%
inhibition at 500 µM [4, 15]: 31 ± 2.5%
inhibition at 1000 µM [4, 15]: 32 ± 2.1%
inhibition at 2000 µM [4, 15]: 32 ± 0.9%
inhibition at 500 µM [4, 16]: 96 ± 2.5%
inhibition at 1000 µM [4, 16]: 97 ± 2.5%
inhibition at 2000 µM [4, 16]: 98 ± 4.1%
inhibition at 500 µM [4, 17]: 28 ± 0.6%
inhibition at 1000 µM [4, 17]: 29 ± 1.1%
inhibition at 2000 µM [4, 17]: 29 ± 1.5%
inhibition at 500 µM [5, 18]: 95 ± 2.1%
inhibition at 1000 µM [5, 18]: 94 ± 3.8%
inhibition at 500 µM [5, 19]: 97 ± 4.6%
inhibition at 1000 µM [5, 19]: 96 ± 3.3%
inhibition at 2000 µM [5, 19]: 98 ± 3.1%
activity at 5000 µM ([6]; pH 5.5, read-out: PfCRT-mediated [3H]CQ transport, trans-stimulation (% PfCRTEcu1110 control), [test solute]i = 5 mM (intracellular), PfCRTEcu1110 oocytes, normalised to oocyte type control): 97 ± 1.4%
activity at 5000 µM ([6]; pH 5.5, read-out: Uptake of [3H]CQ (% PfCRTEcu1110 control), trans-stimulation, PfCRTEcu1110 oocytes, [test solute]i = 5 mM, total [3H]CQ transport, normalised to the oocyte type control): 99 ± 3.2%
activity at 45000 µM ([6]; pH 5.5, read-out: Uptake of [3H]CQ (% PfCRTEcu1110 control), trans-stimulation, PfCRTEcu1110 oocytes, [test solute]i = 45 mM (30 mM for some solutes due to solubility), total [3H]CQ transport, normalised to the oocyte type control): 101 ± 2.1%
activity at 5000 µM ([6]; read-out: Uptake of [3H]CQ (% PfCRTDd2 control), trans-stimulation, PfCRTEcu1110, total [3H]CQ transport, [test solute]i = 5 mM (intracellular), mean ± SEM, SEM): 35 ± 2.6%
activity at 45000 µM ([6]; read-out: Uptake of [3H]CQ (% PfCRTDd2 control), trans-stimulation, PfCRTEcu1110, total [3H]CQ transport, [test solute]i = 45 mM (intracellular; 30 mM for some solutes due to solubility), mean ± SEM, SEM): 36 ± 1.5%
activity at 5000 µM ([7]; PfNT1 oocytes, [test solute]i = 5 mM, normalised to the oocyte type control, read-out: Uptake of [3H]CQ (% PfNT1 control), trans-stimulation): 99 ± 3.1%
activity at 45000 µM ([7]; SEM, read-out: Uptake of [3H]CQ (% PfCRTDd2 control), trans-stimulation, PfNT1): 3.2 ± 0.02%
activity at 45000 µM ([7]; read-out: Uptake of [3H]CQ (% PfNT1 control), trans-stimulation): 99 ± 3.6%
activity at 5000 µM ([7]; [test solute]i = 5 mM (intracellular), mean ± SEM, SEM, read-out: Uptake of [3H]CQ (% PfCRTDd2 control), trans-stimulation, PfNT1): 2.2 ± 0.03%
activity at 5000 µM ([8]; PfCRT3D7 oocytes, [test solute]i = 5 mM, total [3H]CQ transport, normalised to the oocyte type control, read-out: Uptake of [3H]CQ (% PfCRT3D7 control), trans-stimulation): 99 ± 3.6%
[3H]CQ transport (% PfCRT3D7 control), trans-stimulation, PfCRT3D7 ([8]; SEM): 0.3 ± 0.01 % PfCRT3D7 control
activity at 5000 µM ([8]; [test solute]i = 5 mM (intracellular), PfCRT3D7 oocytes, normalised to oocyte type control, read-out: PfCRT-mediated [3H]CQ transport, trans-stimulation (% PfCRT3D7 control)): 97 ± 2.1%
activity at 45000 µM ([8]; SEM, read-out: Uptake of [3H]CQ (% PfCRTDd2 control), trans-stimulation, PfCRT3D7): 3.3 ± 0.05%
activity at 45000 µM ([8]; read-out: PfCRT-mediated [3H]CQ transport, trans-stimulation (% PfCRT3D7 control)): 97 ± 2.3%
activity at 45000 µM ([8]; read-out: Uptake of [3H]CQ (% PfCRT3D7 control), trans-stimulation): 99 ± 3.2%
activity at 5000 µM ([8]; total [3H]CQ transport, [test solute]i = 5 mM (intracellular), mean ± SEM, SEM, read-out: Uptake of [3H]CQ (% PfCRTDd2 control), trans-stimulation, PfCRT3D7): 3.3 ± 0.05%
activity at 5000 µM ([9]; pH 5.5, read-out: PfCRT-mediated [3H]CQ transport, trans-stimulation (% PfCRTDd2 control), [test solute]i = 5 mM (intracellular), PfCRTDd2 oocytes, normalised to oocyte type control): 95 ± 1.9%
activity at 5000 µM ([9]; pH 5.5, read-out: Uptake of [3H]CQ (% PfCRTDd2 control), trans-stimulation, PfCRTDd2, total [3H]CQ transport, [test solute]i = 5 mM (intracellular), mean ± SEM, SEM): 97 ± 3.3%
activity at 5000 µM ([9]; pH 5.5, read-out: Uptake of [3H]CQ (% PfCRTDd2 control), trans-stimulation, PfCRTDd2 oocytes, [test solute]i = 5 mM, total [3H]CQ transport, normalised to the oocyte type control): 97 ± 3.3%
activity at 45000 µM ([9]; pH 5.5, read-out: Uptake of [3H]CQ (% PfCRTDd2 control), trans-stimulation, PfCRTDd2 oocytes, total [3H]CQ transport, normalised to the oocyte type control): 98 ± 1.9%
activity at 5000 µM ([9]; pH 5.5, read-out: [3H]CQ transport (% PfCRTDd2 control), trans-stimulation, PfCRTDd2, trans-stimulation, [test solute]i = 5 mM (injected), PfCRT-mediated component (background subtracted), mean ± SEM, SEM): 95 ± 1.9%
activity at 45000 µM ([9]; pH 5.5, read-out: [3H]CQ transport (% PfCRTDd2 control), trans-stimulation, PfCRTDd2, trans-stimulation, PfCRT-mediated component (background subtracted), mean ± SEM, SEM): 96 ± 3.2%
inhibition at 500 µM [10, 20]: 99 ± 3.2%
inhibition at 1000 µM [10, 20]: 100 ± 3.6%
inhibition at 2000 µM [10, 20]: 99 ± 4.6%
inhibition at 500 µM [10, 21]: 4.2 ± 0.03%
inhibition at 1000 µM [10, 21]: 3.1 ± 0.07%
inhibition at 2000 µM [10, 21]: 3.2 ± 0.08%
Uptake of [3H]CQ (% non-expressing oocyte control), trans-stimulation ([11]; [test solute]i = 5 mM): 99 ± 3.2 % non-expressing oocyte control
Uptake of [3H]CQ (% non-expressing oocyte control), trans-stimulation ([11]; [test solute]i = 45 mM (30 mM for some solutes due to solubility)): 99 ± 2.2 % non-expressing oocyte control
Uptake of [3H]CQ (% PfCRTDd2 control), trans-stimulation, non-expressing oocytes ([11]; [test solute]i = 5 mM (intracellular)): 3.1 ± 0.03 % PfCRTDd2 control
Uptake of [3H]CQ (% PfCRTDd2 control), trans-stimulation, non-expressing oocytes ([11]; [test solute]i = 45 mM (intracellular; 30 mM for some solutes due to solubility)): 3.3 ± 0.08 % PfCRTDd2 control
